Numbers after ± are expanded uncertainties.
What was measured:
[1] = 298.15 K, 101.33 kPa, Liquid
[2] = refractive index (Na D-line) (dimensionless); conditions: 298.15 K; 101.33 kPa; Liquid; Standard Abbe refractometry

SMILES | mass density ([1]; Vibrating tube method) | refractive index [2] | mass density [1]
CCOS(=O)(=O)[O-].CCn1cc[n+](C)c1 [1-ethyl-3-methylimidazolium ethyl sulfate] | 1238.17 ± 8.3 kg/m3 | 1.47903 ± 0.0012 | –
CCCCCCC [heptane] | – | 1.38517 ± 0.00068 | 679.47 ± 0.66 kg/m3
CCCCCC [hexane] | – | 1.37287 ± 0.0007 | 655.06 ± 1.1 kg/m3
c1ccsc1 [thiophene] | – | 1.5253 ± 0.00068 | 1058.59 ± 0.28 kg/m3

The next lines start with the values.

mass density ([1]; Vibrating tube method) | refractive index [2] | mass density [1] | SMILES
– | 1.42011 ± 0.0007 | 745.32 ± 0.91 kg/m3 | CCCCCCCCCCCC [dodecane]
– | 1.43232 ± 0.0007 | 771.15 ± 0.85 kg/m3 | CCCCCCCCCCCCCCCC [hexadecane]
